# According to patent publication US11208559B2, “Modified indigo compounds and methods of dyeing a substrate using a modified indigo compound” (VF Jeanswear LP, priority 2016, dated 2021):
# Tests used:
# Type in all cases: physicochemical
# [1] = Hydrolysis to indigo under hydrolyzing conditions
# [2] = Solubility studies in water (centrifugation, weighing of undissolved solids); conditions: for Highest Solubility Measured (wt. %): in water, corrected for insoluble solids, true maximum solubility not determined; for average percent solids removed: undissolved solids removed during centrifugation of aqueous solutions
# Description: The solutions were prepared by adding a known amount of dye to a known amount of water and agitating the solution. Separately, each solution of known concentration was centrifuged for 30 minutes to separate out any undissolved solids. The supernatant was decanted and the remaining undissolved solids were dried at 50° C. and later weighed to determine wt. % of soluble portion.
# The actual concentration was determined by centrifuging the dye solutions extensively to remove any undissolved solids. The undissolved solids were then isolated, dried, and weighed.
# Note that in all instances, a true maximum solubility in water has not been determined due to the very high solubility of the compounds in water. For all compounds, the maximum solubility was corrected for the amount of insoluble solids that were isolated during centrifugation.
# [3] = Stability of Compound 4 in water, UV-Vis spectra; conditions: 3 wt. % aqueous solution, room temperature, up to 2 days
# Description: The stability of compound 4 was determined. An aqueous solution of 3 wt. % of Compound 4 was prepared at stored at room temperature for 2 days. The UV-Vis spectra for each solution were obtained prior to storage, 3 hours, 1 day, and 2 days. The solution was then diluted by a factor of 300 and the UV-Vis spectrum of FIG. 15 obtained.
# [4] = Atmospheric steam treatment of dyed cotton skein, conversion to indigo; conditions: steam under atmospheric conditions for 30 minutes
# Description: Cotton skeins were pretreated with 1 M NaOH (aq), dyed with a 3 wt. % aqueous solution of Compound 8, hydrolyzed using 1 M NaOH (aq), and then rinsed with water. One skein was dried at 50° C. and remains purple in color. See, the top skein in FIG. 21. The other skein was dried at 50° C. and then exposed to steam under atmospheric conditions for 30 minutes, resulting in the attainment of a blue hue. See, the botton skein in FIG. 21.
# [5] = Heat treatment of dyed cotton fabric, conversion to indigo; conditions: 4 minutes
# Description: Prepared for dye (PFD) 3×1 twill cotton fabric dyed with Compound 8 prepared by dipping in an aqueous solution containing 3 wt. % of Compound 8, padding, and drying at 50° C. The samples were then placed separately into a lab-scale tenter frame for heat treatment. See, FIG. 20 showing the dyed fabric exposed to 100° C. (left), 150° C. (middle), and 180° C. (right).
# [6] = Air stability of aqueous solution, UV-Vis spectra
# Description: The air stability of Compound 8 was measured by diluting of the compound in water to provide a 0.01 wt. % solution. […] The solid line represents the stability of the Compound 8 aqueous solution under atmospheric conditions. The dashed line represents the stability of the Compound 8 aqueous solution after treatment with 15 minutes of nitrogen purging of the solution, followed by storage for 1 day in a vial equipped with a rubber septum. See, FIG. 10. The UV-Vis spectra of the solutions were obtained.
# [7] = Relative kinetics of degradation (hydrolysis) monitored by UV-Vis spectrophotometry; conditions: 0.01 wt. % with 0.1M NaCl aqueous versus 0.01 wt. % without salt, room temperature
# Description: In this example, the relative kinetics of degradation for two conditions for Compound 8 were measured. One solution contained 0.01 wt. % of Compound 8 and 0.1M NaCl aqueous and the other solution contained 0.01 wt. % of Compound 8. Both solutions were stored at room temperature and the hydrolysis monitored using UV-Vis spectrophotometry. See, FIG. 13.
# [8] = Insoluble solids filtered from stored dye solution with sodium sulfate (Test 4); conditions: 2 wt. % aqueous solution, 0.45 micron filter
# Description: Aqueous solutions of 2 wt. % of Compound 8 were prepared with varying concentrations of sodium sulfate and then filtered through a 0.45 micron PVDF syringe filter after one day of room temperature storage. The filters were then dried at 120° C., cooled to room temperature, and weighed to quantify the amount of insoluble solids that had precipitated out of solution during storage.
# In a control experiment, the weight change (−0.35%) was determined for a syringe filter that was flushed with 10 mL distilled water and then dried at 120° C.
# [9] = Storage stability of aqueous dye solution at room temperature, UV-Vis spectra; conditions: for compound converted to indigo: room temperature, 5 day period
# Description: All UV-Vis spectra were obtained using a Varian Cary 6000i UV-Vis spectrophotometer.
# The stability of Compound 8 was measured by diluting samples of the compound in water to provide 0.01 and 3% wt. % solutions. The solutions were then stored at room temperature for 5 days. The UV-Vis spectra of the solution after 1, 2, and 5 days were obtained. FIGS. 3 and 11A are the UV-Vis spectra which show the robustness of the dye compound after at least 2 days of storage at room temperature at both concentrations.
# The longer term stability of Compound 8 was measured by diluting a sample of the compound in water to provide a 0.01 wt. % solution containing 0.1M NaCl (aq). The solution was then stored at room temperature for 5 days. The UV-Vis spectra of the solution were obtained daily over the 5 days.
# The stability of Compound 8 was measured by preparing a 0.01 wt. % aqueous solution of compound 8 in water. The solution was then stored at room temperature for 2 days. The UV-Vis spectra of the solution after 1 and 2 days were obtained. FIG. 11B are the UV-Vis spectra which show the robustness of the dye compound after at least 2 days of storage at room temperature at both concentrations.
# [10] = Dilution of stock solution into distilled water, comparison with leuco-indigo; conditions: for time to turn blue / convert back to indigo after dilution: 1 mL stock solution in 20 mL distilled water, no excess reducing agent
# Description: The stability and visual observations comparing what occurs when an aqueous stock solution of leuco-indigo and an aqueous solution Compound 8 were obtained. The leuco-indigo stock solution was prepared using 0.2 wt. % indigo powder, 0.5 wt. % NaOH, and 0.5 wt. % sodium hydrosulfite, the solution was heated to 50-60° C. for 30 minutes, and the solution was then allowed to cool to room temperature. An aqueous solution containing 3 wt. % of Compound 8 was prepared. 1 mL of each solution was then added to 20 mL of distilled water and physical observations were made. See, Table 3.
# [11] = 1 mL stock solution added to 20 mL distilled water
compound,measurement,setting,value
O=C1/C(=C2/C(=O)c3ccccc3N2C(=O)c2ccncc2)N(C(=O)c2ccncc2)c2ccccc21 [Compound 37],hydrolysis to indigo,[1],hydrolyzes to indigo
same,Highest Solubility Measured (wt. %),[2],1.6 wt. %
same,average percent solids removed,[2],about 26%
C[n+]1cccc(C(=O)N2/C(=C3\C(=O)c4ccccc4N3C(=O)c3ccc[n+](C)c3)C(=O)c3ccccc32)c1 [Compound 4],stability in water compared to Compound 8,[3],relative instability
C[n+]1ccc(C(=O)N2/C(=C3\C(=O)c4ccccc4N3C(=O)c3cc[n+](C)cc3)C(=O)c3ccccc32)cc1 [Compound 8],conversion to indigo by steam,[4],conversion to indigo
same,Highest Solubility Measured (wt. %),[2],40 wt. %
same,average percent solids removed,[2],about 2%
same,conversion to indigo by heat,[5]; 100° C.,no conversion
same,conversion to indigo by heat,[5]; 150° C.,slower conversion
same,conversion to indigo by heat,[5]; 180° C.,relatively rapid conversion
same,"UV-Vis spectra after one day, stored under nitrogen versus atmospheric conditions","[6]; 0.01 wt. % solution in water, 1 day at 8° C.",identical
same,air stability in solution,"[6]; aqueous solution, storage at room temperature for 2 days",air stable
same,hydrolysis rate with salt relative to without salt (factor slower),[7],six
same,Fraction of dye compound removed during filtration (%),"[8]; 0.1M Na2SO4, one day at room temperature",2.85%
same,Fraction of dye compound removed during filtration (%),"[8]; 0.5M Na2SO4, one day at room temperature",−0.4%
same,Fraction of dye compound removed during filtration (%),"[8]; 1M Na2SO4, one day at room temperature",0.1%
same,robustness of the dye compound on storage at room temperature,"[9]; 0.01 and 3 wt. % solutions in water, FIGS. 3 and 11A",at least 2 days
same,compound converted to indigo,[9]; 0.01 wt. % solution containing 0.1M NaCl (aq),9%
same,compound converted to indigo,[9]; 0.01 wt. % solution in water,41%
same,robustness of the dye compound on storage at room temperature,"[9]; Example 27, 0.01 wt. % aqueous solution, FIG. 11B",at least 2 days
same,Observation on dilution (color),[10]; [11],Dark purple solutions became lighter
same,UV-Vis spectra of diluted solutions,[10]; [11],superimposable - consistent with no
"Oc1c(-c2[nH]c3ccccc3c2O)[nH]c2ccccc12 [Leuco-indigo, leuco-indigo]",Observation on dilution (color),[10]; [11],blue-green solution immediately
same,time to turn blue / convert back to indigo after dilution,[10],solution turned blue under 10 seconds
same,time to turn blue / convert back to indigo after dilution,[10]; listed as leuco-indigo,less than 10 seconds
O=C1/C(=C2/C(=O)c3ccccc3N2C(=O)c2ccncc2)N(C(=O)c2ccncc2)c2ccccc21 [Compound 35],Highest Solubility Measured (wt. %),[2],1.7 wt. %
same,average percent solids removed,[2],about 26%
